Test results from paper PMC12595434, “Development of retinoid nuclear receptor pathway antagonists through targeting aldehyde dehydrogenase 1A3” (iScience, 2025).

Assays:
Eta antagonist = Eta antagonist (Homo sapiens, UniProt P25101); assay: Off-target profiling panel; type: cell-based; conditions: read-out: Inhibition by MBE1 at 10 μM (%)
op-kappa = op-kappa (Homo sapiens, UniProt P41145); assay: Off-target profiling panel; type: binding; conditions: read-out: Inhibition by MBE1 at 10 μM (%)
mouse T cells = assay: T cell proliferation (CFSE) co-culture with myeloid cells; type: cell-based; conditions: 1 μM MBE1 treatment of B16F10-ALDH1A3 cells
Procedure: Next, to simulate paracrine signaling from tumor cells, we collected conditioned media from isogenic B16F10 cells stably expressing either vector or ALDH1A3 and added the media to the myeloid cells prior to culturing with T cells.
Bone marrow derived monocytes were enriched using MACS isolation (#130-100-629) and >95% purity of monocytes was confirmed by staining with Ly6C-PE (Clone# HK1.4; Biolegend 128008). Monocytes were cultured in RPMI1640 at 1M/well in a 6-well plate. 20 ng/ml mGM-CSF (peprotech) and 20 ng/ml mIL-4 (peprotech) were used to differentiate monocytes to monocyte derived dendritic cells (MoDCs). 100 nM atRA or 0.1% DMSO was used to treat the cells. 3 days later, floating cells were collected and 20,000 of them were cocultured with 100,000 CD4^+ T cell labeled with CFSE (Thermo fisher scientific) at 1:5000. T cell proliferation was examined ∼72hrs after the coculture. When conditioned medium was used in differentiating MoDCs, conditioned medium was first collected from 500,000 B16-vector control cells vs. B16-mALDH1A3 cells with or without 1 μM MBE1 treatment cultured in 1.5 mL medium in a 6-well plate for ∼24hrs. Fresh RPMI1640 and conditioned medium were mixed 1:1 before applying to MoDC culture. In parallel, fresh RPMI1640 medium alone is used as a control. […]

hNav1.5 = hNav1.5 (Homo sapiens, UniProt Q14524); assay: Off-target profiling panel; type: cell-based; conditions: read-out: Inhibition by MBE1 at 10 μM (%)
Sequence of hNav1.5 (Q14524 whole entry): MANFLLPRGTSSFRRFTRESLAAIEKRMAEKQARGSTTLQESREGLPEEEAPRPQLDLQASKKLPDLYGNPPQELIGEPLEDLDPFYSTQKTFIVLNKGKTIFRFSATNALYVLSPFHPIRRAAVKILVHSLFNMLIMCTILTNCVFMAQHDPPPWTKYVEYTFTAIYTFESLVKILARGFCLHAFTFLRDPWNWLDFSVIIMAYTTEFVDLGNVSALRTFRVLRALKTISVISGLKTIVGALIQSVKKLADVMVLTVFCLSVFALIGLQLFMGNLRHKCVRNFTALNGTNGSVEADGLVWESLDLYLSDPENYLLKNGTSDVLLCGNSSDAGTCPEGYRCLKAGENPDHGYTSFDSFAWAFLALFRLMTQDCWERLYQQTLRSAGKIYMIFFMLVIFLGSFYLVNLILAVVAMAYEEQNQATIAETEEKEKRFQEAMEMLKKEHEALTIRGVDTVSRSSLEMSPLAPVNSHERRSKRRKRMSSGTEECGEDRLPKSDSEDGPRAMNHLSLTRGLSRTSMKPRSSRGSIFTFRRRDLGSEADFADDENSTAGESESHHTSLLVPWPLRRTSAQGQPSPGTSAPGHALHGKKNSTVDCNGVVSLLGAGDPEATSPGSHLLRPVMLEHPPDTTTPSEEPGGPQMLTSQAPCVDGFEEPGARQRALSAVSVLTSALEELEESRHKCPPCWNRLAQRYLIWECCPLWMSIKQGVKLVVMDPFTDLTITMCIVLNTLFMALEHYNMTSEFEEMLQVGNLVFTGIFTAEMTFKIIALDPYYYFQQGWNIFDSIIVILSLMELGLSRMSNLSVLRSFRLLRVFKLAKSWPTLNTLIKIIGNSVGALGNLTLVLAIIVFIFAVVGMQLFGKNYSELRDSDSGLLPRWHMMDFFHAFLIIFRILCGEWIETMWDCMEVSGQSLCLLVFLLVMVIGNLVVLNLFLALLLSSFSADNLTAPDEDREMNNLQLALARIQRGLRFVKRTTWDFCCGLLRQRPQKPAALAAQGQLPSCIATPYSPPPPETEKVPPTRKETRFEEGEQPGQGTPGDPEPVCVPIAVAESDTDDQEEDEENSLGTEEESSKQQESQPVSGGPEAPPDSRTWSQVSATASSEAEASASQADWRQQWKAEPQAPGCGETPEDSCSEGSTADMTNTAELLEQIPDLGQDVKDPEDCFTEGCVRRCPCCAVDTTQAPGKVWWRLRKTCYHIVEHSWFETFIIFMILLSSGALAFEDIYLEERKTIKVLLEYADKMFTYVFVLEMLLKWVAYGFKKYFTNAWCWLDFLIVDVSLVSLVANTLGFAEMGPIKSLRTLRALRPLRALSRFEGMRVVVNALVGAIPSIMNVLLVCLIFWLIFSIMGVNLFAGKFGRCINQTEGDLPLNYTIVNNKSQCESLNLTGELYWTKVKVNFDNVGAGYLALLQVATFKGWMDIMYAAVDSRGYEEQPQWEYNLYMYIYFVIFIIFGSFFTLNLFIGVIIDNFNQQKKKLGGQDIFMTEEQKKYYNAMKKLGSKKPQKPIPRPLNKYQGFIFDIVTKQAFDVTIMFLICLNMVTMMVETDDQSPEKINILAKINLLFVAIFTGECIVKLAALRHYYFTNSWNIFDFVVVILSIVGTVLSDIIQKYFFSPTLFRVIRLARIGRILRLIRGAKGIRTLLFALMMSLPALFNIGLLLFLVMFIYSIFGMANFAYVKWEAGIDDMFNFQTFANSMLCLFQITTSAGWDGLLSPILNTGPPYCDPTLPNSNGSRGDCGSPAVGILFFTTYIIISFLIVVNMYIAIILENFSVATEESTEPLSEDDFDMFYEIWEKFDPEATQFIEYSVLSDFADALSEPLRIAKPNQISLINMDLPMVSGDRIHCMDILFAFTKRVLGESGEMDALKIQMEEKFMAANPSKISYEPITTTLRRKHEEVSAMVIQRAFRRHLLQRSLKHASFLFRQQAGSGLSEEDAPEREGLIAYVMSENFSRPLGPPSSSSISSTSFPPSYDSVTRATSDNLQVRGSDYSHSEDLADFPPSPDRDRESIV

TPX2 = target: T1, TPX2 (Homo sapiens, UniProt Q9ULW0); assay: Thermal proteome profiling (TPP) in A375 cells; type: cell-based; conditions: TPX2, 100 nM
T1 construct: Treated A375 cells were harvested from 10 × 15 cm plates; endogenous in cells; host or cells: A375 melanoma cells
T1 sequence (Q9ULW0 whole entry): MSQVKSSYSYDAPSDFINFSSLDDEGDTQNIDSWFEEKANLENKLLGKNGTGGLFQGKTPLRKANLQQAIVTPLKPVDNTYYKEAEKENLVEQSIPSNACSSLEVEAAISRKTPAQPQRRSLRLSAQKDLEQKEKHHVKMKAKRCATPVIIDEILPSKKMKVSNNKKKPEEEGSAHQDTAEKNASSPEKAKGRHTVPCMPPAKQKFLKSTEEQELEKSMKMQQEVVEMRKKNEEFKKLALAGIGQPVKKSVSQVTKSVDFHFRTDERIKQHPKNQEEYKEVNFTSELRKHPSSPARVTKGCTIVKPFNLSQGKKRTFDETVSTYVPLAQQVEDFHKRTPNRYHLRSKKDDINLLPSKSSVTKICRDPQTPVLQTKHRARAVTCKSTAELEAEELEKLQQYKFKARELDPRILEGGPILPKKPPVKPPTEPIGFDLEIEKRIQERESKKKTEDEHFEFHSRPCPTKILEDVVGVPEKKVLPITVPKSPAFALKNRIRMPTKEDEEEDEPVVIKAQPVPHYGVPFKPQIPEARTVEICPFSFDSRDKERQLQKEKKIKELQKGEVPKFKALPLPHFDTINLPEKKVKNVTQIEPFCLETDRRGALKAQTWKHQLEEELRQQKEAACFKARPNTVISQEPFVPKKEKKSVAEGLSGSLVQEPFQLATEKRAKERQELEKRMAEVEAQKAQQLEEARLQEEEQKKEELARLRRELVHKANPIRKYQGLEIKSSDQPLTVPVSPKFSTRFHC

T3-MCA sarcoma = assay: T3-MCA syngeneic tumor growth; type: in vivo, mouse; conditions: MBE1.5-formulated diet 270 ppm (equivalent 40 mg/kg per day), by day 7 of treatment
Procedure: A considerable number of research efforts have attempted to generate retinoid nuclear receptor pathway antagonists, whether through targeting retinoid transport, the atRA synthetic enzymes, or by creating inverse agonists of the RAR/RXR nuclear receptors. […] Thus, mice were injected subcutaneously with T3-MCA sarcoma cells and were randomized by tumor size once tumors became palpable. One group received MBE1.5-formulated diet at 270 ppm (equivalent dose of 40 mg/kg body mass per day based on average food consumption), and the other group received control diet.
No statistical method was used to predetermine the number of animals needed across experiments. Xenograft experiments were conducted using 50k cells suspended in 10 μL PBS for mammary gland injection or 100k cells in 100 μL PBS for subcutaneous injection. Bioluminescent imaging (BLI) and tumor measurement was conducted as previously described.[78] IV/PO pharmacokinetic analysis of MBE1 and MBE1.5 was conducted on male CD-1 mice from Vital River that had been fasted for 4 h. Sampling was performed from either jugular puncture or tail-vein sampling using BD yellow-capped tubes for serum analysis or K2-EDTA tubes for hematology. Medicated feed was manufactured at Envigo using MBE1.5 powder with a final concentration of 270 ppm. Medicated diet was stored at 4°C for no longer than 6 months at a time.

[1] = 7-day repeat-dose study, oral gavage; type: in vivo, mouse; conditions: 50 mg/kg twice daily oral gavage
Procedure: In order to accommodate in vivo dosing and to also determine any potential toxic effects of MBE1.5, we performed a 7-day repeat-dose study administering a suspension of MBE1.5 at 50 mg/kg twice daily via oral gavage.
(§1) Finally, to establish a pharmacokinetic profile throughout dosing, MBE1.5 was analyzed in serum 12 h post dose on day 1 and day 7. […] To accommodate consistent plasma concentrations without accumulation, MBE1.5 was formulated to a lower concentration in mouse diet that would administer a dose equivalent to 25 mg/kg daily. This formulated diet was provided to mice for 5 days, at which point serum was analyzed for MBE1.5 concentration at 6:30 a.m. and 4:00 p.m. on day 5 to capture differences in mouse feeding cycles.
Figure S5. Specificity, tolerability and pharmacokinetic analysis of MBE1.5 in […]
MCF7 or SUM159 cells and a dose titration of MBE1.5 was performed against each cell line in the Aldelfuor assay to confirm ALDH1A3 isoform specificity for MBE1.5. n= 3 […]
(§2) proteome profiling in A375 cells was performed in DMSO and at two concentrations of MBE1 using a 10 temperature melting curve for isolation, followed by proteomic analysis, filtering and mapping peptide frequency as a composite melting curve, n=3 biological replicates per condition-temperature. […] ALDH1A3 or NPTN were assessed by WB to confirm the stabilization of ALDH1A3 but not NPTN (55kD, as indicated by arrow) by MBE1. […]
analysis of MBE1.5 following identification of proper formulations and administration to fasted male CD1 mice at 1 mg/kg intravenous (IV) and 10 mg/kg oral gavage (PO). n = 3 mice per arm. G-I, MBE1.5 administered as a suspension to C57BL/6 male mice via bi-daily PO administration for seven days as compared to the vehicle was tracked for body weight (G), complete blood count at day 7 (H) and plasma concentrations of MBE1.5 were analyzed at 12 hours post Day 1 dosing and 12 hours following the last dose (I). n = 4 male mice per arm. […] Upon acclimation, serum MBE1.5 concentrations were calculated following blood draws at 6:30 am and 4 pm. n = 5 mice per arm. […]

[2] = Serum concentration on MBE1.5-formulated diet; type: in vivo, mouse
Procedure: as §1
No statistical method was used to predetermine the number of animals needed across experiments. […]
as §2
analysis of MBE1.5 following identification of proper formulations and administration to fasted male CD1 mice at 1 mg/kg intravenous (IV) and 10 mg/kg oral gavage (PO). n = 3 mice per arm. […] Upon acclimation, serum MBE1.5 concentrations were calculated following blood draws at 6:30 am and 4 pm. n = 5 mice per arm. […]

Sequence of op-kappa (P41145 whole entry): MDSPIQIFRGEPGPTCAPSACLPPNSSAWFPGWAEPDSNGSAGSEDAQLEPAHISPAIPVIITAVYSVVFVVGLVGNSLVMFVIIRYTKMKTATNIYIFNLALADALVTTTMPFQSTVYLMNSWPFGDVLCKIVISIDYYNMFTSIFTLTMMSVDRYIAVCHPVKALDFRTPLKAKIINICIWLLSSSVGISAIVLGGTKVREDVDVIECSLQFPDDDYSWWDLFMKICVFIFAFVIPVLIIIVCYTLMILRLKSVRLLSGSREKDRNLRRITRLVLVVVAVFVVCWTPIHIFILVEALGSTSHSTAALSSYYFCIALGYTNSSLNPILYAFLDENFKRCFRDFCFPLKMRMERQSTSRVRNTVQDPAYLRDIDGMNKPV
Sequence of Eta antagonist (P25101 21-427): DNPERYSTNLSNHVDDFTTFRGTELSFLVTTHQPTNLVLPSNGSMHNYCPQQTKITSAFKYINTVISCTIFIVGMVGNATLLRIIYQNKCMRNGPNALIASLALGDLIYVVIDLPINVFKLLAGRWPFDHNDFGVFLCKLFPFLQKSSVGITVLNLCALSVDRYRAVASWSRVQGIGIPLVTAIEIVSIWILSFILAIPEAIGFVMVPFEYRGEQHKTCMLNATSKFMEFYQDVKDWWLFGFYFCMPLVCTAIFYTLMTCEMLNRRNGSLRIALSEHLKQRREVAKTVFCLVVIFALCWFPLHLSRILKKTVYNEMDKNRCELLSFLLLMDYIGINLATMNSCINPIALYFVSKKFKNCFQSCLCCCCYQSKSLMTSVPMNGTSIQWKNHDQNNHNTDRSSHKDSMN

SMILES	inhibition at 10 µM (Eta antagonist) [%]	inhibition at 10 µM (op-kappa) [%]	T cell proliferation block by B16F10-ALDH1A3 conditioned media (in words) (mouse T cells)	inhibition at 10 µM (hNav1.5) [%]	100nM MBE1 Tm (TPX2)	DMSO-100nM MBE1 TM (TPX2)	tumor growth (in words) (T3-MCA sarcoma)	serum level 12 h post dose, day 1 vs day 7 (in words) [1]	body weight vs vehicle (in words) ([1]; 7 days, C57BL/6 male mice)	blood profile (complete blood count) vs vehicle (in words) ([1]; day 7)	concentration at 5 day ([2]; C57BL/6, mouse, serum, oral, 25 mg/kg daily, day 5, read-out: nadir serum concentration) [nM]	nadir serum concentration as multiple of IC50 in the retinoid assay ([2]; day 5)
CCc1cnccc1C(=O)Nc1cc2c(cc1F)NC(=O)CC2 [MBE1, 3-ethyl-N-(7-fluoro-2-oxo-3,4-dihydro-1H-quinolin-6-yl)pyridine-4-carboxamide]	4.57	-12.6	proliferation block disappeared	-0.59	64	-7.655						
CCc1ccccc1C(=O)Nc1cc2c(cc1F)NC(=O)CC2 [MBE1.5, 2-ethyl-N-(7-fluoro-2-oxo-3,4-dihydro-1H-quinolin-6-yl)benzamide]							dramatically reduced tumor growth	accumulated	no difference	no detectable difference	~270	more than 100 fold
